Laboratory results taken from patent US6617126B1, “Method for improving the growth and colorimetric detection of bacteria, yeasts, fungi or cocci” (priority 1996, dated 2003).
≈ marks a conversion by molar mass, not a printed value. Like-named read-outs stand apart in the source and are kept apart here.

Assays:
[1] = tested on: Mycobacterium tuberculosis
[2] = tested on: Mycobacterium tuberculosis; assay: microbe, parasite or virus in culture
[3] = H37RV, read-out: MIC (minimum inhibiting concentration), strain M.tb. H37 Rv
[4] = read-out: MIC (minimum inhibiting concentration), strain Clin. M.tb 1
[5] = read-out: MIC (minimum inhibiting concentration), strain Clin. M.tb 15

Row | Structure (SMILES) | MIC (minimum inhibiting concentration) ([1]; strain Clin. M.tb 1) [mg/L] | MIC (minimum inhibiting concentration) ([1]; strain Clin. M.tb 15) [mg/L] | MIC (minimum inhibiting concentration) ([1]; strain M.tb. H37 Rv) [mg/L] | MIC [2, 3] [mg/L] | MIC [2, 4] [mg/L] | MIC [2, 5] [mg/L]
1 | NNC(=O)c1ccncc1 [Isoniacid (INA), Isoniacid] | 0.03 (≈ 0.219 µM) | 0.03 (≈ 0.219 µM) | 0.06 (≈ 0.438 µM) |  |  | 
2 | CC[C@@H](CO)NCCN[C@@H](CC)CO [Ethambutol (EMB), Ethambutol] |  |  |  | 0.5 (≈ 2.45 µM) | 0.25 (≈ 1.22 µM) | 0.5 (≈ 2.45 µM)
3 | CO[C@H]1/C=C/O[C@@]2(C)Oc3c(C)c(O)c4c(O)c(c(/C=N/N5CCN(C)CC5)c(O)c4c3C2=O)NC(=O)/C(C)=C\C=C\[C@H](C)[C@H](O)[C@@H](C)[C@@H](O)[C@@H](C)[C@H](OC(C)=O)[C@@H]1C [Rifampicin (RMP), Rifampicin] |  |  |  | 2 (≈ 2.43 µM) | 1 (≈ 1.22 µM) | 2 (≈ 2.43 µM)
